Laboratory results as given in PubChem BioAssay AID2060508 (Molecular Pharmacology Branch, DTP, NCI, 2025).
pIC50: −log10 of the molar value.

Tested on: 454973-116-R2-J3-PDC spheroids, viability, % test/control
Assay: Anticancer human tumor 454973-116-R2-J3-PDC patient-derived pancreatic carcinoma cell line growth inhibition [GQUAD]
Settings: spheroids with HUVEC and MSC; for pIC50: curve of first compound; for viability, T/C: stronger effect = lower value
Procedure, shortened: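 Multi-cell-type spheroids of tumor cells with HUVEC and mesenchymal stem cells, treated with drug combinations. Concentrations descend in half-log steps from near clinical Cmax, or from 10 microM where Cmax is unknown; viability read-out.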

[1] = second compound 0.0316 µM, first compound 0.0316 µM
[2] = second compound 0.0316 µM, first compound 0.1 µM
[3] = second compound 0.0316 µM, first compound 0.316 µM
[4] = second compound 0.0316 µM, first compound 1 µM
[5] = second compound 0.0316 µM, first compound 3.16 µM
[6] = second compound 0.0316 µM, first compound 10 µM
[7] = second compound 0.1 µM, first compound 0.0316 µM
[8] = second compound 0.1 µM, first compound 0.1 µM
[9] = second compound 0.1 µM, first compound 0.316 µM
[10] = second compound 0.1 µM, first compound 1 µM
[11] = second compound 0.1 µM, first compound 3.16 µM
[12] = second compound 0.1 µM, first compound 10 µM
[13] = second compound 0.316 µM, first compound 0.0316 µM
[14] = second compound 0.316 µM, first compound 0.1 µM
[15] = second compound 0.316 µM, first compound 0.316 µM
[16] = second compound 0.316 µM, first compound 1 µM
[17] = second compound 0.316 µM, first compound 3.16 µM
[18] = second compound 0.316 µM, first compound 10 µM
[19] = second compound 1 µM, first compound 0.0316 µM
[20] = second compound 1 µM, first compound 0.1 µM
[21] = second compound 1 µM, first compound 0.316 µM
[22] = second compound 1 µM, first compound 1 µM
[23] = second compound 1 µM, first compound 3.16 µM
[24] = second compound 1 µM, first compound 10 µM
[25] = second compound 3.16 µM, first compound 0.0316 µM
[26] = second compound 3.16 µM, first compound 0.1 µM
[27] = second compound 3.16 µM, first compound 0.316 µM
[28] = second compound 3.16 µM, first compound 1 µM
[29] = second compound 3.16 µM, first compound 3.16 µM
[30] = second compound 3.16 µM, first compound 10 µM
[31] = second compound 10 µM, first compound 0.0316 µM
[32] = second compound 10 µM, first compound 0.1 µM
[33] = second compound 10 µM, first compound 0.316 µM
[34] = second compound 10 µM, first compound 1 µM
[35] = second compound 10 µM, first compound 3.16 µM
[36] = second compound 10 µM, first compound 10 µM
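Further: spheroids exposed to compounds for seven days.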
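Wherever viability, T/C is given: 100% = DMSO vehicle control viability.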

CC(C)n1c(=O)n(C)c2cnc3cc(F)c(-c4ccc(OCCCN5CCCCC5)nc4)cc3c21 + CN(C)c1ccc(Nc2c3ccc(NC(=O)CCN4CCCC4)cc3nc3cc(NC(=O)CCN4CCCC4)ccc23)cc1
pIC50 (second compound 0.0316 µM): < 5.00 | pIC50 (second compound 0.1 µM): < 5.00 | pIC50 (second compound 0.316 µM): < 5.00 | pIC50 (second compound 1 µM): < 5.00 | pIC50 (second compound 3.16 µM): < 5.00 | pIC50 (second compound 10 µM): 5.35 | viability, T/C [1]: 108% | viability, T/C [2]: 94.8% | viability, T/C [3]: 104% | viability, T/C [4]: 99.2% | viability, T/C [5]: 78.7% | viability, T/C [6]: 73.5% | viability, T/C [7]: 103% | viability, T/C [8]: 118% | viability, T/C [9]: 95.2% | viability, T/C [10]: 97.1% | viability, T/C [11]: 68.7% | viability, T/C [12]: 76.1% | viability, T/C [13]: 103% | viability, T/C [14]: 103% | viability, T/C [15]: 99.5% | viability, T/C [16]: 89.1% | viability, T/C [17]: 75.1% | viability, T/C [18]: 73.8% | viability, T/C [19]: 99.6% | viability, T/C [20]: 99.3% | viability, T/C [21]: 91.7% | viability, T/C [22]: 66.3% | viability, T/C [23]: 81.8% | viability, T/C [24]: 65.3% | viability, T/C [25]: 85.7% | viability, T/C [26]: 91.7% | viability, T/C [27]: 95.9% | viability, T/C [28]: 65.8% | viability, T/C [29]: 72.5% | viability, T/C [30]: 63.7% | viability, T/C [31]: 76.9% | viability, T/C [32]: 74.6% | viability, T/C [33]: 69% | viability, T/C [34]: 61.4% | viability, T/C [35]: 61.8% | viability, T/C [36]: 34.1%

CC1COCCN1c1cc(-c2ccnn2C)c2ccnc(-c3ccn[nH]3)c2n1 (stereo not drawn) + CN(C)c1ccc(Nc2c3ccc(NC(=O)CCN4CCCC4)cc3nc3cc(NC(=O)CCN4CCCC4)ccc23)cc1
pIC50 (second compound 0.0316 µM): 6.74 | pIC50 (second compound 0.1 µM): 6.72 | pIC50 (second compound 0.316 µM): 6.72 | pIC50 (second compound 1 µM): 6.77 | pIC50 (second compound 3.16 µM): 6.85 | pIC50 (second compound 10 µM): 7.10 | viability, T/C [1]: 97.9% | viability, T/C [2]: 66.8% | viability, T/C [3]: 35.2% | viability, T/C [4]: 23% | viability, T/C [5]: 24% | viability, T/C [6]: 29.4% | viability, T/C [7]: 102% | viability, T/C [8]: 72% | viability, T/C [9]: 32.9% | viability, T/C [10]: 22.9% | viability, T/C [11]: 23.1% | viability, T/C [12]: 26.1% | viability, T/C [13]: 94.3% | viability, T/C [14]: 74.1% | viability, T/C [15]: 31% | viability, T/C [16]: 21.3% | viability, T/C [17]: 21.7% | viability, T/C [18]: 29.4% | viability, T/C [19]: 91.3% | viability, T/C [20]: 63.1% | viability, T/C [21]: 36.2% | viability, T/C [22]: 20.8% | viability, T/C [23]: 22.6% | viability, T/C [24]: 27.5% | viability, T/C [25]: 87% | viability, T/C [26]: 55.5% | viability, T/C [27]: 38% | viability, T/C [28]: 21.3% | viability, T/C [29]: 26.2% | viability, T/C [30]: 27.1% | viability, T/C [31]: 69.8% | viability, T/C [32]: 45.5% | viability, T/C [33]: 31.4% | viability, T/C [34]: 27.6% | viability, T/C [35]: 24.1% | viability, T/C [36]: 27%

CC1COCCN1c1cc(C2(S(C)(=N)=O)CC2)nc(-c2ccnc3[nH]ccc23)n1 (stereo not drawn) + CN(C)c1ccc(Nc2c3ccc(NC(=O)CCN4CCCC4)cc3nc3cc(NC(=O)CCN4CCCC4)ccc23)cc1
pIC50 (second compound 0.0316 µM): 5.27 | pIC50 (second compound 0.1 µM): 5.27 | pIC50 (second compound 0.316 µM): 5.22 | pIC50 (second compound 1 µM): 5.29 | pIC50 (second compound 3.16 µM): 5.22 | pIC50 (second compound 10 µM): 5.23 | viability, T/C [1]: 110% | viability, T/C [2]: 105% | viability, T/C [3]: 105% | viability, T/C [4]: 102% | viability, T/C [5]: 64.1% | viability, T/C [6]: 33.5% | viability, T/C [7]: 109% | viability, T/C [8]: 99.4% | viability, T/C [9]: 115% | viability, T/C [10]: 108% | viability, T/C [11]: 62.9% | viability, T/C [12]: 34.5% | viability, T/C [13]: 104% | viability, T/C [14]: 103% | viability, T/C [15]: 99.8% | viability, T/C [16]: 100% | viability, T/C [17]: 71.1% | viability, T/C [18]: 33% | viability, T/C [19]: 94.4% | viability, T/C [20]: 95.1% | viability, T/C [21]: 110% | viability, T/C [22]: 77.2% | viability, T/C [23]: 63.9% | viability, T/C [24]: 34.3% | viability, T/C [25]: 89% | viability, T/C [26]: 90.8% | viability, T/C [27]: 90.1% | viability, T/C [28]: 82.8% | viability, T/C [29]: 66.2% | viability, T/C [30]: 37.7% | viability, T/C [31]: 80.5% | viability, T/C [32]: 82.1% | viability, T/C [33]: 83.7% | viability, T/C [34]: 78.4% | viability, T/C [35]: 59.8% | viability, T/C [36]: 41.5%

COc1ccc([C@@H](O)c2cc(-c3ncnc4cc(N5CCOCC5)ccc34)c(F)cc2Cl)nn1 + CN(C)c1ccc(Nc2c3ccc(NC(=O)CCN4CCCC4)cc3nc3cc(NC(=O)CCN4CCCC4)ccc23)cc1
pIC50 (second compound 0.0316 µM): < 5.00 | pIC50 (second compound 0.1 µM): < 5.00 | pIC50 (second compound 0.316 µM): 5.04 | pIC50 (second compound 1 µM): 5.18 | pIC50 (second compound 3.16 µM): 5.27 | pIC50 (second compound 10 µM): 5.54 | viability, T/C [1]: 101% | viability, T/C [2]: 94.6% | viability, T/C [3]: 96.3% | viability, T/C [4]: 82.8% | viability, T/C [5]: 69.1% | viability, T/C [6]: 55.7% | viability, T/C [7]: 112% | viability, T/C [8]: 98.5% | viability, T/C [9]: 101% | viability, T/C [10]: 82.9% | viability, T/C [11]: 65.5% | viability, T/C [12]: 51.5% | viability, T/C [13]: 93.3% | viability, T/C [14]: 91.5% | viability, T/C [15]: 89.1% | viability, T/C [16]: 76.1% | viability, T/C [17]: 66.5% | viability, T/C [18]: 48.5% | viability, T/C [19]: 89.5% | viability, T/C [20]: 86.3% | viability, T/C [21]: 88.2% | viability, T/C [22]: 76.6% | viability, T/C [23]: 59.4% | viability, T/C [24]: 44.7% | viability, T/C [25]: 86.1% | viability, T/C [26]: 91.2% | viability, T/C [27]: 85.2% | viability, T/C [28]: 68.9% | viability, T/C [29]: 59.9% | viability, T/C [30]: 40.7% | viability, T/C [31]: 76.6% | viability, T/C [32]: 68.2% | viability, T/C [33]: 81.9% | viability, T/C [34]: 61.4% | viability, T/C [35]: 50% | viability, T/C [36]: 27.6%
